Columns and labels:
[1] = biological target: T1, wild-type ALK2 (aa172-499) (Homo sapiens (Human), UniProt Q04771); assay: ADPGlo biochemical autophosphorylation assay, ALK2; conditions: 15 uM ATP
[2] = biological target: ALK2 FOP mutant (aa172-499 R206H) (Homo sapiens (Human), UniProt Q04771, R206H); assay: Caliper biochemical peptide phosphorylation assay, ALK2 FOP; conditions: Caliper peptide phosphorylation, R206H, 15 uM ATP; read-out: ALK2 FOP EPK IC50
[3] = biological target: ALK6 (aa168-495) (Homo sapiens (Human), UniProt O00238); assay: Caliper biochemical peptide phosphorylation assay, ALK6; conditions: 15 uM ATP
[4] = biological target: ALK1 (aa166-493) (Homo sapiens (Human), UniProt P37023); assay: Caliper biochemical peptide phosphorylation assay, ALK1; conditions: 15 uM ATP
[5] = test system: HuH7 cells, BMP response element (BRE) luciferase reporter, BMP6 stimulated; assay: BMP signaling reporter gene assay; type: cell-based; conditions: Homo sapiens, Huh-7; BMP6 100 ng/ml; read-out: MSD HuH7 cell BMP reporter IC50
[6] = biological target: ALK3 (aa198-525) (Homo sapiens (Human), UniProt P36894); assay: ADPGlo biochemical autophosphorylation assay, ALK3; conditions: 15 uM ATP
[7] = biological target: ALK5 (aa162-503) (Homo sapiens (Human), UniProt P36897); assay: Caliper biochemical peptide phosphorylation assay, ALK5; conditions: 15 uM ATP
Excerpt: For all biochemical assays, human recombinant proteins were expressed in and purified from baculo virus transfected insect cells. The constructs comprised the GS-domain and kinase domain of wild-type ALK2 (aa172-499), ALK2 FOP mutant (aa172-499 R206H), ALK3 (aa198-525), ALK5 (aa162-503) and ALK6 (aa168-495).
A kinase selectivity panel which measures substrate peptide phosphorylation was set-up for wild-type ALK2 (aa172-499), ALK2 FOP mutant (aa172-499 R206H), ALK1 (aa166-493), ALK5 (aa162-503) and ALK6 (aa168-495). The technology used for the described assay is based on the separation and quantification of substrate and product in an electrical field. In the course of the kinase reaction the peptide substrate is phosphorylated by a kinase. […] Due to this difference in charge the phosphorylated und unphosphorylated peptides migrate with different velocities in an electrical field.
In the applied method, this separation takes place inside a chip that contains a complex capillary system for simultaneous analysis of 12 samples (“LabChip EZ Reader 12-sipper chip”, Caliper Technologies Corp., Mountain View, USA). In order to allow the detection and quantification of the peptides in the capillary system, the peptides carry a fluorescent label (fluorescein). With this label the peptides can be quantified by fluorescence intensity through the instruments laser and detection system (LC3000, Caliper Life Sciences).
The assays were performed in 384-well, low volume microtiter assay plates in a final reaction volume of 9 ul. Dose-response curves were generated by incubating 10 nM of each kinase together with 2 uM of the fluorescently labeled substrate peptide 5-Fluo-Ahx-[…]-T-[…]-amid (10 mM stock solution in DMSO) in 50 mM Hepes pH 7.5, 0.02% Tween 20, 0.02% BSA, 1 mM DTT, 10 uM Na3VO4, 10 mM ß-Glycerolphosphate, 1 mM MgCl2, 12 mM MnCl2 (ALK1 and ALK6 7 mM) and 15 uM ATP for 60 min at 30° C. in the presence or absence of compound diluted in DMSO.
Kinase reactions were terminated by adding 15 ul STOP buffer (100 mM HEPES pH 7.5, 5% DMSO, 0.1% Caliper coating reagent, 10 mM EDTA, and 0.015% Brij35.
Plates with terminated kinase reactions were transferred to the Caliper LC3000 workstation (Caliper Technologies Corp., Mountain View, USA) for reading. The relative amount of phosphorylated peptide r, was calculated using the heights of the substrate peak, s, and the product peak, p:r=p/(p+s).
IC50 values for a given antagonist correspond to the compound concentration needed to inhibit half of the maximum signal of the kinase reaction.

[8] = biological target: T1, wild-type ALK2 (aa172-499); assay: Caliper biochemical peptide phosphorylation assay, ALK2; conditions: Caliper peptide phosphorylation, 15 uM ATP; read-out: ALK2 IC50

Chain of ALK3 (aa198-525) (P36894 198-525): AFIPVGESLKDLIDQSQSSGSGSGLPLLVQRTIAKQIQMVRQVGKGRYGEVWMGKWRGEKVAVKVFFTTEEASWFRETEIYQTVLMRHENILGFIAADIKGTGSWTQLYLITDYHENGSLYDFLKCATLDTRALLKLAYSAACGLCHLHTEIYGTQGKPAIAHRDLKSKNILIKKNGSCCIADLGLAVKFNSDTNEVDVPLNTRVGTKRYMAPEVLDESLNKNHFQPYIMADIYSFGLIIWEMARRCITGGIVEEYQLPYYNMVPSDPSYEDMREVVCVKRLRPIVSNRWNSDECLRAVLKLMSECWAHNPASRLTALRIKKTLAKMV
Chain of ALK2 FOP mutant (aa172-499 R206H) (Q04771 172-499 R206H): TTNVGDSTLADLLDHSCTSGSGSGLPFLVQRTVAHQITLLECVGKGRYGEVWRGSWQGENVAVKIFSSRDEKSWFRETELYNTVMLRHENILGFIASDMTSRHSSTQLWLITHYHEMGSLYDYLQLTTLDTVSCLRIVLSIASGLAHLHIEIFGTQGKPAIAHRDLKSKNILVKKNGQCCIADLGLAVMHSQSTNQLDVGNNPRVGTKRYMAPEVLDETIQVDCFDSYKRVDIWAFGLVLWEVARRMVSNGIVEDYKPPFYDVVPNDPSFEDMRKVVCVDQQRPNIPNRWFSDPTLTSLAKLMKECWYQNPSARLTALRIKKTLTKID
T1 sequence (Q04771 172-499): as the sequence (Q04771 172-499 R206H) above, with H35R counted along it
Chain of ALK6 (aa168-495) (O00238 168-495): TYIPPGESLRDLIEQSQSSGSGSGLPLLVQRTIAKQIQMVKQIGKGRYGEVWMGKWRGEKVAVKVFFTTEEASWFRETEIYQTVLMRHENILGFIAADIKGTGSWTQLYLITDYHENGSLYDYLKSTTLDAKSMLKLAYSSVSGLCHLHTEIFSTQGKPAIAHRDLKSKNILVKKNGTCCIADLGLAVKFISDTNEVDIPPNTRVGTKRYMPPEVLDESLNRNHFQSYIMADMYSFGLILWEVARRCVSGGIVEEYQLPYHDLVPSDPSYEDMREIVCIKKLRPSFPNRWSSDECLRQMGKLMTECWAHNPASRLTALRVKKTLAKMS
Chain of ALK5 (aa162-503) (P36897 162-503): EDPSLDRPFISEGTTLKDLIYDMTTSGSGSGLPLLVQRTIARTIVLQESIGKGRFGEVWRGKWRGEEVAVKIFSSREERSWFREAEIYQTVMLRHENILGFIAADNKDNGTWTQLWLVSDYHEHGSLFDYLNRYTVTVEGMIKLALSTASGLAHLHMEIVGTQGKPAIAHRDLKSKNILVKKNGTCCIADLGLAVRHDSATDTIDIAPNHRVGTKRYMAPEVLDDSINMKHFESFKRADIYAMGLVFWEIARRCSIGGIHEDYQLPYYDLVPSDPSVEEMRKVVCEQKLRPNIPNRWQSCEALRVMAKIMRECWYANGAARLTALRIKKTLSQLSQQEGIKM
Chain of ALK1 (aa166-493) (P37023 166-493): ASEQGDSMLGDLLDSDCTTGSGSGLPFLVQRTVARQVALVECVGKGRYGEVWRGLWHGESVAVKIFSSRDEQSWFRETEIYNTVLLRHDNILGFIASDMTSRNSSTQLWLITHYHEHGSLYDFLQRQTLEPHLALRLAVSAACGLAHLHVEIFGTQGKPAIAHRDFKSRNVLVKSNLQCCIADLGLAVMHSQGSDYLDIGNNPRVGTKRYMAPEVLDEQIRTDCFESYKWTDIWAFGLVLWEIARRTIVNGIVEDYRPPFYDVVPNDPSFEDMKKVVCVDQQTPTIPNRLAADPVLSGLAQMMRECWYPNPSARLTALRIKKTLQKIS

| IC50 [1] [nM] | IC50 [2] [nM] | IC50 [3] [nM] | IC50 [4] [nM] | IC50 [5] [nM] | IC50 [6] [nM] | IC50 [7] [nM] | IC50 [8] [nM] | Structure (SMILES) |
| --- | --- | --- | --- | --- | --- | --- | --- | --- |
| 67 | 60 | 800 | 420 | 60 | 300 | 1900 | 70 | CC(C)CN1C(=O)Cc2cc(-c3cncc(-c4ccc(=O)n(C(C)C)c4)c3)ccc21 [Example 24, 1-Isobutyl-5-(1′-isopropyl-6′-oxo-1′,6′-dihydro-[3,3′-bipyridin]-5-yl)indolin-2-one] |
| 2200 | 810 | 9300 | 4200 | 1900 | 5400 | > 10000 | 740 | CN1C(=O)Cc2cc(-c3cncc(-c4ccc(=O)n(C)c4)c3)ccc21 [Example 19, 1-methyl-5-(1′-methyl-6′-oxo-1′,6′-dihydro-[3,3′-bipyridin]-5-yl)indolin-2-one] |
| 350 | 230 | 2900 | 1300 | 390 | 2400 | 9300 | 190 | CC(C)n1cc(-c2cncc(-c3cc(F)c4c(c3)CC(=O)N4C)c2)ccc1=O [Example 36, 7-Fluoro-5-(1′-isopropyl-6′-oxo-1′,6′-dihydro-[3,3′-bipyridin]-5-yl)-1-methylindolin-2-one] |
| 130 | 60 | 1100 | 640 | 100 | 540 | 3400 | 60 | CC(C)n1cc(-c2cncc(-c3ccc4c(c3)CC(=O)N4CC3CCC3)c2)ccc1=O [Example 38, 1-(cyclobutylmethyl)-5-(1′-isopropyl-6′-oxo-1′,6′-dihydro-[3,3′-bipyridin]-5-yl)indolin-2-one] |
| 94 | 80 | 860 | 900 | 100 | 800 | 4200 | 100 | CCC(CC)CN1C(=O)Cc2cc(-c3cncc(-c4ccc(=O)n(C(C)C)c4)c3)ccc21 [Example 40, 1-(2-ethylbutyl)-5-(1′-isopropyl-6′-oxo-1′,6′-dihydro-[3,3′-bipyridin]-5-yl)indolin-2-one] |
| 90 | 90 | 2000 | 520 | 120 | 600 | 1000 | 100 | CC(C)n1cc(-c2nc(-c3ccc4c(c3)CC(=O)N4C)cnc2N)ccc1=O [Example 43, 5-(5-amino-6-(1-isopropyl-6-oxo-1,6-dihydropyridin-3-yl)pyrazin-2-yl)-1-methylindolin-2-one] |
| 1100 | 830 | > 10000 | 8700 | 1200 | 15000 | > 10000 | 820 | CN1C(=O)Cc2cc(-c3cncc(-c4ccc(=O)n(CCC(F)(F)F)c4)c3)ccc21 [Example 16, 1-methyl-5-(6′-oxo-1′-(3,3,3-trifluoropropyl)-1′,6′-dihydro-[3,3′-bipyridin]-5-yl)indolin-2-one] |
| 110 | 80 | 3050 | 670 | 230 | 1000 | 5700 | 90 | CC(C)n1nc(-c2cncc(-c3ccc4c(c3)CC(=O)N4C)c2)ccc1=O [Example 44, 5-(5-(1-isopropyl-6-oxo-1,6-dihydropyridazin-3-yl)pyridin-3-yl)-1-methylindolin-2-one] |
| 290 | 240 | 5400 | 1700 | 300 | 2500 | > 10000 | 240 | CC(C)n1cc(-c2cncc(-c3cnc4c(c3)CCC(=O)N4C)c2)ccc1=O [Example 37, 6-(1′-Isopropyl-6′-oxo-1′,6′-dihydro-[3,3′-bipyridin]-5-yl)-1-methyl-3,4-dihydro-1,8-naphthyridin-2(1H)-one] |
| 230 | 180 | 2900 | 1700 | 660 | 3600 | 5300 | 150 | CN1C(=O)Cc2cc(-c3cncc(-c4ccc(=O)n(C5CCC5)c4)c3)ccc21 [Example 6, 5-(1′-Cyclobutyl-6′-oxo-1′,6′-dihydro-[3,3′-bipyridin]-5-yl)-1-methylindolin-2-one] |
| 1100 | 910 | > 10000 | 7000 | 1200 | > 15100 | > 10000 | 920 | CC(C)CCn1cc(-c2cncc(-c3ccc4c(c3)CC(=O)N4C)c2)ccc1=O [Example 17, 5-(1′-isopentyl-6′-oxo-1′,6′-dihydro-[3,3′-bipyridin]-5-yl)-1-methylindolin-2-one] |
| 100 | 70 | 1000 | 540 | 90 | 490 | 1500 | 80 | CCCN1C(=O)Cc2cc(-c3cncc(-c4ccc(=O)n(C(C)C)c4)c3)ccc21 [Example 25, 5-(1′-Isopropyl-6′-oxo-1′,6′-dihydro-[3,3′-bipyridin]-5-yl)-1-propylindolin-2-one] |
| 175 | 150 | 1500 | 1100 | 280 | 1120 | 4200 | 140 | CC(C)n1cc(-c2cncc(-c3ccc4c(c3)CC(=O)N4CCCO)c2)ccc1=O [Example 47, 1-(3-hydroxypropyl)-5-(1′-isopropyl-6′-oxo-1′,6′-dihydro-[3,3′-bipyridin]-5-yl)indolin-2-one] |

Reference: patent US11160797B2, “Pyridinone derivatives and their use as selective ALK-2 inhibitors” (NOVARTIS AG, priority 2017, dated 2021)
